Experiments:
[1] = system: mouse pre-implantation embryos (129sv x OG2 Oct4-EGFP); assay: Isolation of ES-like cells from mouse morula/blastocysts pre-treated with 5-aza-cytidine (Oct4-EGFP reporter); assay type: cell-based; conditions: 1 μM for 24 h pre-treatment
Protocol: Pre-pubertal (5-6 week old) 129sv females were super-ovulated using a routine protocol (1 IU PMSG and HCG injected i.p. 48h apart) before mating with OG2 males. […] The OG2 males, used as studs for mating, were C57/B16 strain and transgenic for an Oct4-EGFP construct. All pluripotent cells from these mice express GFP and this property was exploited in this study with GFP being used as a fluorescent marker to facilitate the identification of ESCs once derived. Zygotes were collected from the oviduct of humanely killed female mice. Cumulus cells were removed from zygotes by treatment with Hyaluronidase (300 IU/ml) in KSOM medium (Chemicon). The zygotes were carefully washed to remove hyaluronidase and transferred to a fresh dish with culture drops in a 37° C. incubator and allowed to develop to the morula/blastocyst stage. Treatment of Morula/Blastocyst with 1 μM of 5-aza-cytidine. Morula/blastocysts were cultured in the KSOM culture drops supplemented with 1 μM 5-aza-cytidine for 24 hr. F1 (CBA/C57) MEF's were used as a feeder layer to facilitate attachment of embryos and subsequent isolation and support of ESCs. MEF's were inactivated by treatment with mitomycin C (10 μg/ml) for 2.5 hr in the 37° C. incubator and plated at the rate of 3×10^5 cells/ml per 6 cm dish. […]

[2] = system: Bovine D7.5 embryos at the blastocyst stage; assay: Culture of crushed whole bovine blastocysts on MEF feeder layer with 5′-azacytidine (primary and passaged outgrowths); assay type: cell-based
Protocol: Bovine D7.5 embryos at the blastocyst stage were crushed and depressed into mouse embryonic feeder (MEF) layers, using fine-tipped glass micropipettes or Ultra-fine needle insulin syringe, and cultured in alpha-MEM medium in presence of bFGF, hEGF, ITS, hrLIF, 2-beta-ME, Glutamax, NEAA and 20% FCS. On the same day or on the following day the media was replaced with fresh media containing (treated group) or not containing (untreated group) 5 μM 5′-azacytidine. The media in each group was changed every 3 days.
After seven to nine days, non-treated and treated “squashed” whole embryos developed morphologically distinguishable primary embryonal outgrowths.
These cell colonies reached confluence in 14-21 days, depending on the number of pieces that were placed in the dish. The growing colonies which developed into confluent monolayers expressed marker of pluripotency, such as Oct4.

## Nc1ncn([C@@H]2O[C@H](CO)[C@@H](O)[C@H]2O)c(=O)n1 [5′-azacytidine, 5-azacytidine]
[1]; then 0.1 μM in modified ESC medium
  Expression of GFP transgene under control of Oct4 in putative ESCs: expressed a GFP transgene
[1]; then 0.1 μM in modified ESC medium on feeder layer, 8-10 days of culture
  Formation of ESC-like colonies from embryonal explants: colonies of cells resembling ESCs were observed
[2]; 5 μM, after seven to nine days of culture, untreated outgrowths contained pluripotent, trophoblast and primitive endoderm cells
  Cell composition/morphology of primary embryonal outgrowth (treated outgrowth, TRO): consisting only of cells with morphology, characteristic of bovine ES-like cells
[2]; 5 μM, in control outgrowths only the PC part expressed the markers
  Expression of markers of pluripotency Oct4, Rex1 and SSEA-1 in TRO outgrowths: all the cells expressed these markers
[2]; 5 μM, over the next 9-12 days, without any changes in morphology
  Diameter of TRO outgrowths: about 2 cm
[2]; concentration reduced to below 2.5 μM
  Same effects on primary and passaged cultures at reduced concentration: not observed
[2]; passaged TRO in the presence of 5′-azacytidine, depends on number of pieces in the dish
  Time for passaged colonies to reach confluence: 14 to 21 days
[2]; primary TRO cultured 14-21 days, split into 600-800 μm pieces, passaged onto fresh feeder layer, cultured in the presence of 5′-azacytidine
  Colony formation of passaged TRO outgrowths: able to form colonies of cells with uniform morphology, characteristic of bovine ES-like cells
